Measured values from patent US20260262643A1, “HERBICIDAL BENZOXAZINES” (FMC CORPORATION, priority 2022, published 2026).

Assays:
wheat [1] = assay: Test C postemergence; assay type: in vivo, Triticum aestivum; conditions: 10 days
Method in brief: (§1)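 Soil-applied (pre) and foliar (post, 1–2 leaf, 2–10 cm) sprays; surfactant-containing non-phytotoxic solvent vehicle; loam/sand substrate. Readout: visual % control at 10 d, greenhouse, versus untreated.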

galium = assay: Test C postemergence; assay type: in vivo, Galium aparine; conditions: 10 days
Method in brief: as §1

kochia [2] = assay: Test C preemergence; assay type: in vivo, Bassia scoparia; conditions: 0 to 100 scale (0 no effect, 100 complete control); for Plant response rating, Kochia: Preemergence, 500 g ai/ha, visual rating after 10 days; for Kochia plant response rating: Test C, preemergence, 125 g ai/ha
Method in brief: as §1

horseweed = assay: Test C postemergence; assay type: in vivo, Erigeron canadensis; conditions: 10 days
Method in brief: as §1

barnyardgrass [3] = assay: Test D flooded paddy test; assay type: in vivo, Echinochloa crus-galli; conditions: 250 g ai/ha, applied to paddy water, visual rating after 13 to 14 days, scale 0 to 100 (0 no effect, 100 complete control)
Experimental: (§2) Plant species in the flooded paddy test selected from barnyardgrass (Echinochloa crus-galli), ducksalad (Heteranthera limosa), rice (Oryza sativa), and sedge, umbrella (small-flower umbrella sedge, Cyperus difformis) were grown to the 2-leaf stage for testing. At time of treatment, test pots were flooded to 3 cm above the soil surface, treated by application of test compounds directly to the paddy water, and then maintained at that water depth for the duration of the test. Treated plants and controls were maintained in a greenhouse for 13 to 14 days, after which time all species were compared to controls and visually evaluated. Plant response ratings, summarized in Table D, are based on a scale of 0 to 100 where 0 is no effect and 100 is complete control. A dash (-) response means no test result.

soybean [4] = assay: Test C preemergence; assay type: in vivo, Glycine max; conditions: 0 to 100 scale (0 no effect, 100 complete control); for Plant response rating, Soybean: Preemergence, 500 g ai/ha, visual rating after 10 days; for Soybean plant response rating: Test C, preemergence, 125 g ai/ha
Method in brief: as §1

sedge, umbrella = assay: Test D flooded paddy test; assay type: in vivo, Cyperus difformis; conditions: 250 g ai/ha, applied to paddy water, visual rating after 13 to 14 days, scale 0 to 100 (0 no effect, 100 complete control)
Experimental: as §2

green foxtail = assay: Test C preemergence; assay type: in vivo, Setaria viridis; conditions: 0 to 100 scale (0 no effect, 100 complete control); for Plant response rating, Foxtail, Green: Preemergence, 500 g ai/ha, visual rating after 10 days; for Foxtail, Green plant response rating: Test C, preemergence, 125 g ai/ha
Method in brief: as §1

pigweed, palmer [5] = assay: Test C postemergence; assay type: in vivo, Amaranthus palmeri; conditions: 10 days
Method in brief: as §1

ragweed [6] = assay: Test C preemergence; assay type: in vivo, Ambrosia artemisiifolia; conditions: 0 to 100 scale (0 no effect, 100 complete control); for Plant response rating, Ragweed: Preemergence, 500 g ai/ha, visual rating after 10 days; for Ragweed plant response rating: Test C, preemergence, 125 g ai/ha
Method in brief: as §1

ryegrass, Italian [7] = assay: Test C preemergence; assay type: in vivo, Lolium multiflorum; conditions: 0 to 100 scale (0 no effect, 100 complete control); for Plant response rating, Ryegrass, Italian: Preemergence, 500 g ai/ha, visual rating after 10 days; for Ryegrass, Italian plant response rating: Test C, preemergence, 125 g ai/ha
Method in brief: as §1

corn [8] = assay: Test C postemergence; assay type: in vivo, Zea mays; conditions: 10 days
Method in brief: as §1

rice = assay: Test D flooded paddy test; assay type: in vivo, Oryza sativa; conditions: 250 g ai/ha, applied to paddy water, visual rating after 13 to 14 days, scale 0 to 100 (0 no effect, 100 complete control)
Experimental: as §2

oat, wild [9] = assay: Test C postemergence; assay type: in vivo, Avena fatua; conditions: 10 days
Method in brief: as §1

ragweed [10] = assay: Test C postemergence; assay type: in vivo, Ambrosia artemisiifolia; conditions: 10 days
Method in brief: as §1

blackgrass [11] = assay: Test C preemergence; assay type: in vivo, Alopecurus myosuroides; conditions: 0 to 100 scale (0 no effect, 100 complete control); for Plant response rating, Blackgrass: Preemergence, 500 g ai/ha, visual rating after 10 days; for Blackgrass plant response rating: Test C, preemergence, 125 g ai/ha
Method in brief: as §1

ducksalad = assay: Test D flooded paddy test; assay type: in vivo, Heteranthera limosa; conditions: 250 g ai/ha, applied to paddy water, visual rating after 13 to 14 days, scale 0 to 100 (0 no effect, 100 complete control)
Experimental: as §2

ryegrass, Italian [12] = assay: Test C postemergence; assay type: in vivo, Lolium multiflorum; conditions: 10 days
Method in brief: as §1

pigweed, palmer [13] = assay: Test C preemergence; assay type: in vivo, Amaranthus palmeri; conditions: 0 to 100 scale (0 no effect, 100 complete control); for Plant response rating, Pigweed, Palmer: Preemergence, 500 g ai/ha, visual rating after 10 days; for Pigweed, Palmer plant response rating: Test C, preemergence, 125 g ai/ha
Method in brief: as §1

wheat [14] = assay: Test C preemergence; assay type: in vivo, Triticum aestivum; conditions: 0 to 100 scale (0 no effect, 100 complete control); for Plant response rating, Wheat: Preemergence, 500 g ai/ha, visual rating after 10 days; for Wheat plant response rating: Test C, preemergence, 125 g ai/ha
Method in brief: as §1

barnyardgrass [15] = assay: Test C preemergence; assay type: in vivo, Echinochloa crusgalli; conditions: 0 to 100 scale (0 no effect, 100 complete control); for Plant response rating, Barnyardgrass: Preemergence, 500 g ai/ha, visual rating after 10 days; for Barnyardgrass plant response rating: Test C, preemergence, 125 g ai/ha
Method in brief: as §1

corn [16] = assay: Test C preemergence; assay type: in vivo, Zea mays; conditions: 0 to 100 scale (0 no effect, 100 complete control); for Plant response rating, Corn: Preemergence, 500 g ai/ha, visual rating after 10 days; for Corn plant response rating: Test C, preemergence, 125 g ai/ha
Method in brief: as §1

oat, wild [17] = assay: Test C preemergence; assay type: in vivo, Avena fatua; conditions: 0 to 100 scale (0 no effect, 100 complete control); for Plant response rating, Oat, Wild: Preemergence, 500 g ai/ha, visual rating after 10 days; for Oat, Wild plant response rating: Test C, preemergence, 125 g ai/ha
Method in brief: as §1

kochia [18] = assay: Test C postemergence; assay type: in vivo, Bassia scoparia; conditions: 10 days
Method in brief: as §1

barnyardgrass [19] = assay: Test C postemergence; assay type: in vivo, Echinochloa crusgalli; conditions: 10 days
Method in brief: as §1

blackgrass [20] = assay: Test C postemergence; assay type: in vivo, Alopecurus myosuroides; conditions: 10 days
Method in brief: as §1

soybean [21] = assay: Test C postemergence; assay type: in vivo, Glycine max; conditions: 10 days
Method in brief: as §1

[22] = 125 g ai/ha, postemergence, 0 to 100 scale, 0 no effect, 100 complete control
[23] = Postemergence, 500 g ai/ha, visual 0 to 100 scale (0 no effect, 100 complete control)

COc1ccc(-n2cnc(C(C)(C)O)n2)cc1C(=O)N1C[C@H](C)Oc2c(Cl)cccc21 [Compound 254]
Plant response rating, Wheat (wheat [1]; [22]): 50 | Plant response rating, Wheat (wheat [1]; [23]): 80 | Plant response rating, Galium (galium; [22]): 100 | Plant response rating, Galium (galium; [23]): 100 | Plant response rating, Kochia (kochia [2]): 90 | Kochia plant response rating (kochia [2]): 90 | Plant response rating, Horseweed (horseweed; [22]): 30 | Plant response rating, Horseweed (horseweed; [23]): 20 | Plant response rating, Barnyardgrass (Flood) (barnyardgrass [3]): 25 | Plant response rating, Soybean (soybean [4]): 100 | Soybean plant response rating (soybean [4]): 100 | Plant response rating, Sedge, Umbrella (Flood) (sedge, umbrella): 98 | Plant response rating, Foxtail, Green (green foxtail): 100 | Foxtail, Green plant response rating (green foxtail): 100 | Plant response rating, Pigweed, Palmer (pigweed, palmer [5]; [22]): 90 | Plant response rating, Pigweed, Palmer (pigweed, palmer [5]; [23]): 100 | Plant response rating, Ragweed (ragweed [6]): 90 | Ragweed plant response rating (ragweed [6]): 80 | Plant response rating, Ryegrass, Italian (ryegrass, Italian [7]): 90 | Ryegrass, Italian plant response rating (ryegrass, Italian [7]): 90 | Plant response rating, Corn (corn [8]; [22]): 80 | Plant response rating, Corn (corn [8]; [23]): 90 | Plant response rating, Rice (Flood) (rice): 20 | Plant response rating, Oat, Wild (oat, wild [9]; [22]): 80 | Plant response rating, Oat, Wild (oat, wild [9]; [23]): 90 | Plant response rating, Ragweed (ragweed [10]; [22]): 90 | Plant response rating, Ragweed (ragweed [10]; [23]): 100 | Plant response rating, Blackgrass (blackgrass [11]): 80 | Blackgrass plant response rating (blackgrass [11]): 40 | Plant response rating, Ducksalad (Flood) (ducksalad): 98 | Plant response rating, Ryegrass, Italian (ryegrass, Italian [12]; [22]): 70 | Plant response rating, Ryegrass, Italian (ryegrass, Italian [12]; [23]): 80 | Plant response rating, Pigweed, Palmer (pigweed, palmer [13]): 100 | Pigweed, Palmer plant response rating (pigweed, palmer [13]): 100 | Plant response rating, Wheat (wheat [14]): 90 | Wheat plant response rating (wheat [14]): 70 | Plant response rating, Barnyardgrass (barnyardgrass [15]): 100 | Barnyardgrass plant response rating (barnyardgrass [15]): 70 | Plant response rating, Corn (corn [16]): 50 | Corn plant response rating (corn [16]): 50 | Plant response rating, Oat, Wild (oat, wild [17]): 90 | Oat, Wild plant response rating (oat, wild [17]): 90 | Plant response rating, Kochia (kochia [18]; [22]): 80 | Plant response rating, Kochia (kochia [18]; [23]): 90 | Plant response rating, Barnyardgrass (barnyardgrass [19]; [22]): 50 | Plant response rating, Barnyardgrass (barnyardgrass [19]; [23]): 80 | Plant response rating, Blackgrass (blackgrass [20]; [22]): 80 | Plant response rating, Blackgrass (blackgrass [20]; [23]): 90 | Plant response rating, Soybean (soybean [21]; [22]): 100 | Plant response rating, Soybean (soybean [21]; [23]): 100

COC[C@H]1CN(C(=O)c2cc(-n3cncn3)ccc2OC)c2cccc(Cl)c2O1 [Compound 234]
Plant response rating, Wheat (wheat [1]; [22]): 50 | Plant response rating, Wheat (wheat [1]; [23]): 80 | Plant response rating, Galium (galium; [22]): 100 | Plant response rating, Galium (galium; [23]): 100 | Plant response rating, Kochia (kochia [2]): 60 | Kochia plant response rating (kochia [2]): 30 | Plant response rating, Horseweed (horseweed; [22]): 20 | Plant response rating, Horseweed (horseweed; [23]): 20 | Plant response rating, Barnyardgrass (Flood) (barnyardgrass [3]): 75 | Plant response rating, Soybean (soybean [4]): 100 | Soybean plant response rating (soybean [4]): 90 | Plant response rating, Sedge, Umbrella (Flood) (sedge, umbrella): 100 | Plant response rating, Foxtail, Green (green foxtail): 100 | Foxtail, Green plant response rating (green foxtail): 100 | Plant response rating, Pigweed, Palmer (pigweed, palmer [5]; [22]): 30 | Plant response rating, Pigweed, Palmer (pigweed, palmer [5]; [23]): 70 | Plant response rating, Ragweed (ragweed [6]): 50 | Ragweed plant response rating (ragweed [6]): 50 | Plant response rating, Ryegrass, Italian (ryegrass, Italian [7]): 90 | Ryegrass, Italian plant response rating (ryegrass, Italian [7]): 80 | Plant response rating, Corn (corn [8]; [22]): 70 | Plant response rating, Corn (corn [8]; [23]): 90 | Plant response rating, Rice (Flood) (rice): 0 | Plant response rating, Oat, Wild (oat, wild [9]; [22]): 50 | Plant response rating, Oat, Wild (oat, wild [9]; [23]): 80 | Plant response rating, Ragweed (ragweed [10]; [22]): 50 | Plant response rating, Ragweed (ragweed [10]; [23]): 70 | Plant response rating, Blackgrass (blackgrass [11]): 80 | Blackgrass plant response rating (blackgrass [11]): 70 | Plant response rating, Ducksalad (Flood) (ducksalad): 100 | Plant response rating, Ryegrass, Italian (ryegrass, Italian [12]; [22]): 90 | Plant response rating, Ryegrass, Italian (ryegrass, Italian [12]; [23]): 90 | Plant response rating, Pigweed, Palmer (pigweed, palmer [13]): 90 | Pigweed, Palmer plant response rating (pigweed, palmer [13]): 60 | Plant response rating, Wheat (wheat [14]): 80 | Wheat plant response rating (wheat [14]): 40 | Plant response rating, Barnyardgrass (barnyardgrass [15]): 100 | Barnyardgrass plant response rating (barnyardgrass [15]): 90 | Plant response rating, Corn (corn [16]): 10 | Corn plant response rating (corn [16]): 10 | Plant response rating, Oat, Wild (oat, wild [17]): 70 | Oat, Wild plant response rating (oat, wild [17]): 50 | Plant response rating, Kochia (kochia [18]; [22]): 60 | Plant response rating, Kochia (kochia [18]; [23]): 80 | Plant response rating, Barnyardgrass (barnyardgrass [19]; [22]): 60 | Plant response rating, Barnyardgrass (barnyardgrass [19]; [23]): 100 | Plant response rating, Blackgrass (blackgrass [20]; [22]): 80 | Plant response rating, Blackgrass (blackgrass [20]; [23]): 90 | Plant response rating, Soybean (soybean [21]; [22]): 100 | Plant response rating, Soybean (soybean [21]; [23]): 100
